This note sets out measurements from US11465963B2, “Tetrahydronaphthalene derivatives useful as Nrf2 activators” (BIOGEN MA INC., priority 2017, dated 2022).

Assay type in all cases: cell-based
The subject of assay [1] is Nrf2 target genes, including GCLC, HMOX1, OSGIN1 and NQO1. Kind of assay: Gene expression (RT-PCR) in cultured human astrocytes. Particulars: human astrocytes treated with increasing concentrations for 20 hours. The procedure:
(§1) Human astrocytes from ScienCell (cat #1820) were grown in astrocyte medium per supplier's instructions. Cells cultured for no more than two passages were plated in 96-well plates at 40,000 cells per well for gene transcription experiments and 20,000 cells per well for glutathione and cytoprotection assays.
Primary cultures of human spinal cord astrocytes were treated with compound for 20 hours. The cells were then rinsed in PBS, lysed, and processed for RNA using Ambion Taqman™ Cells-to-CT kit. The resulting cDNA was stored at −20° C. until analysis by real-time polymerase chain reaction (RT-PCR). The cDNA mixture from Cells-to-CT was diluted 5× before loading into PCR. This yields results similar to using 6 ng of purified cDNA. RT-PCR was performed on Life Technologies QuantStudio platform using OpenArray technique according to manufacturer's protocol using the following Taqman primers: […]
The comparative CT method was used to calculate fold changes using ThermoFisher Cloud software for PCR analysis. Samples were compared to vehicle control.

Assay [2] deals with human astrocytes. As to the kind of experiment: Glutathione assay in cultured human astrocytes. Particulars: 20-hr exposure, FIG. 2. As for the experimental part: as §1
Intracellular glutathione was measured after a 20-hr exposure to test compounds by a two-step process. First, cells were lysed and luciferin quantitatively generated from substrate, catalyzed by glutathione-S-transferase in the presence of analyte glutathione. Then luciferin was assayed using stabilized luciferase to produce a luminescent signal proportional to the concentration of glutathione (Promega GSH-Glo, cat #V6912).

Assay [3] concerns human astrocytes. Kind of assay: Cytoprotection of human astrocytes from sodium arsenite. Particulars: compound 20 hrs before 25 μM sodium arsenite, then 22 hrs, FIG. 3. As for the experimental part:
Human astrocytes from ScienCell (cat #1820) were grown in astrocyte medium per supplier's instructions. Cells cultured for no more than two passages were plated in 96-well plates at 40,000 cells per well for gene transcription experiments and 20,000 cells per well for glutathione and cytoprotection assays. Astrocytes were treated for 20 hrs as above, then the medium was removed and replaced with serum- and supplement-free growth medium with and without 25 μM sodium arsenite. After 22 hrs., cells were washed with PBS, fixed with 4% paraformaldehyde/4% sucrose in PBS, stained with 4′,6-Diamidino-2-phenylindole dihydrochloride (DAPI) and counted by quantitative fluorescence microscopy.

`CC1(C)C(=O)C(C#N)=C[C@]2(C)C[C@](O)(c3ccccc3)CC[C@H]12` [Compound 24, (4aS,7S,8aS)-7-hydroxy-4,4,8a-trimethyl-3-oxo-7-phenyl-4a,5,6,8-tetrahydronaphthalene-2-carbonitrile]: the “transcription of GCLC” value in assay [1] (FIG. 1A) is “induces transcription”. Moreover, the “transcription of HMOX1” value in assay [1] (FIG. 1B) is reported as “induces transcription”. Moreover, in assay [1] (FIG. 1C), the “transcription of OSGIN1” value is given as “induces transcription”. Also, the “transcription of NQO1” value in assay [1] (FIG. 1D) is reported as “induces transcription”. The intracellular glutathione result with human astrocytes [2] is listed as “increases”. For the same molecule, the “protection from oxidative stress-induced cell death” value in the assay on human astrocytes [3] is listed as “protects”.
